In PMC7534258, “Novel temporin L antimicrobial peptides: promoting self-assembling by lipidic tags to tackle superbugs” (Journal of Enzyme Inhibition and Medicinal Chemistry, 2020):
“Also recorded” adds a separate entry of the source. Where a SMILES comes first, the peptide text is derived from it. [ ]: non-standard residue; d: D form. The star is where a group is joined. Phe(4-NH2) = Nc1ccc(C[C@H](N)C(=O)O)cc1; Pentanoyl = CCCCC(=O)*

What was measured:
[1] = ANTS/DPX leakage assay; details: ANTS/DPX-loaded LUVs, Gram-positive and Gram-negative mimicking
Protocol: Large unilamellar vesicles (LUVs) and small unilamellar vesicles (SUVs) consisting of DOPG/CL (58/42 ratio in moles) and DOPG/DOPE/CL (63/23/12 ratio in moles), mimic the Gram-positive membrane and Gram-negative membrane, respectively. LUVs were prepared using the extrusion method as previously described. In particular, first lipid films were prepared by dissolving an appropriate amount of lipids in chloroform and fluorescent probes were added when necessary, then dried under a nitrogen gas stream and freeze-dried overnight. In all experiments, we used a final lipid concentration of 0.1 mM. For fluorescence experiments, buffer was added to dry lipid films and vortexed for 1 h; then the lipid suspension was freeze-thawed 6 times and extruded 10 times through polycarbonate membranes with 0.1 µm diameter pores to obtain LUVs. For circular dichroism measurements, peptide samples in SUVs were prepared as reported in the following protocol. Lipids were dissolved in chloroform and added to an equal volume of peptide solution dissolved in TFE containing appropriate peptide concentration. The samples were vortexed and lyophilised overnight. The dry samples were rehydrated with phosphate buffer 5 mM, pH 7.4 for 1 h and sonicated for 30 min.
The ANTS/DPX leakage assay was used to measure the ability of peptide to permeabilise and induce leakage of encapsulated dyes. After lipid films were prepared as previously described, ANTS (12.5 mM) and DPX (45 mM) were dissolved in 2 ml water, were added to lipid films and then lyophilised overnight. The lipid films with encapsulated ANTS and DPX were hydrated with PBS 1X buffer, vortexed for 1 h and then treated to obtain LUVs. The non-encapsulated ANTS and DPX were removed by gel filtration using a Sephadex G-50 column (1.5 cm × 10 cm) at room temperature. To start up the leakage experiment, a 2 mM peptide stock solution was prepared and LUVs were titrated with the peptide. Samples were excited at 385 nm (slit width, 5 nm) and fluorescence emission was recorded at 512 nm (slit width, 5 nm). After the addition of peptide, we evaluated leakage of encapsulated ANTS through a change in fluorescence spectra of ANTS and DPX. In particular, leakage is associated to an increase in ANTS fluorescence at 512 nm. Complete release of ANTS was obtained by using 0.1% Triton X, which caused the total destruction of liposomes. The percentage of leakage was calculated as % leakage =(Fi−F0)/(Ft−F0), where F0 represents the fluorescence of intact LUVs before the addition of peptide, and Fi and Ft denote the intensities of the fluorescence achieved after peptide and Triton-X treatment, respectively.

[2] = Critical aggregation concentration, Nile red fluorescence; type: physicochemical; details: aqueous solution, pH 7, Nile red, 1–200 µM peptide
Protocol: The solvatochromic fluorescent probe Nile red is widely used to determine the CAC of self-assembling peptides. […] Since Nile red is poorly soluble in water, there is a large preference to partition aggregates, which offer hydrophobic binding sites. Initially, 1 mM methanolic Nile red was prepared. Then, the methanolic Nile red was diluted with water in order to have a final concentration of 500 nM (solution A). The peptides 1B, 2B, 3B, C, were prepared as follows[39]: peptide stock solutions (0.4 mM) were prepared by dissolving the single peptides in water (1B, C) or tetrahydrofuran (3B, 2B) and sonicating for 15 min. Different aliquots were taken to prepare solutions of each peptide at different concentrations (1, 5, 10, 15, 20, 30, 50, 100 and 200 µM). Then, all solutions were diluted with water, sonicated for 15 min and freeze-dried. Finally, the peptide powders were dissolved with the right volume of solution A and allowed to stand in the dark place for 1 h before measurement. Emission spectra for each solution were measured by a Cary Eclipse Varian spectrometer. Spectra were taken between 570 and 700 nm at a slit width of 5 nm, using an excitation wavelength of 550 nm and a 10 nm slit width. The measurements were performed in triplicate. The data were analysed by plotting the maximum emission fluorescence corresponding wavelength (y) as a function of peptide concentration (x) and fitting with the sigmoidal Boltzmann equation: y=A1+A2/1+e^(x−x0/Δx)+A2 where the variables A1 and A2 correspond to the upper and lower limits of the sigmoid, x0 is the inflection point of the sigmoid and Δx is the parameter, which characterises the steepness of the function. The sigmoidal plot allows calculating the CAC value at x0.

[3] = tested on: P. aeruginosa ATCC 27853; experiment: Broth microdilution MIC, reference strain; type: cell-based, Pseudomonas aeruginosa
Protocol: (§1) Staphylococcus aureus ATCC 25923, Pseudomonas aeruginosa ATCC 27853 and Klebsiella pneumoniae ATCC BAA-1705 (carbapenemase producer) were obtained from the American Type Culture Collection (Rockville, MD).
(§2) Identification was performed by sub-culturing on Tryptic Soy Agar (TSA, Becton Dickinson) and by biochemical characterisation using the Vitek II system (Biomerieux). The antimicrobial susceptibility testing of all isolates was determined using Vitek II system and results were interpreted according to European Committee on Antimicrobial Susceptibility Testing (EUCAST version 9.0, 2019). P. aeruginosa was cultured in Brain Heart Infusion broth (BHI, OXOID), S. aureus and K. pneumoniae were cultured in Tryptic Soya broth (TSB, OXOID), under aerobic conditions at 37 °C, for 24 h on an orbital shaker at 200 rpm.
(§3) Minimal inhibitory concentrations (MIC) of all the peptides were determined in Mueller–Hinton medium by the broth microdilution assay, following the procedure already described[22]^,[34]. The compounds were added to bacterial suspension in each well yielding a final cell concentration of 1 × 10^6 CFU/ml and a final compound concentration ranging from 0.78 to 100 µM. Negative control wells were set to contain bacteria in Mueller–Hinton broth plus the amount of vehicle (ethanol) used to dilute each compound. Positive controls included vancomycin (2 µg/ml), tobramycin (4 µg/ml), gentamycin (4 µg/ml), and imipenem (8 µg/ml).

[4] = tested on: Pa1; experiment: microbe, parasite or virus in culture; details: multidrug resistant clinical isolate
Protocol: (§4) Clinical strains of P. aeruginosa (Pa1, Pa2 and Pa3), K. pneumoniae (KpCR1, KpCR2 and KpCR3), and S. aureus (Sa1, Sa2 and Sa3) were isolated from bloodstream or pulmonary infections, and belong to a collection of bacterial strains established between 2010 and 2018 at the Department of Molecular Medicine and Medical Biotechnologies (University Federico II, Naples) for research use.
as §2, §3

[5] = tested on: Sa3; experiment: microbe, parasite or virus in culture; details: 24 h
Protocol: as §4, §2, §3

[6] = tested on: KpCR1; experiment: microbe, parasite or virus in culture; details: carbapenem-resistant clinical isolate
Protocol: as §4, §2, §3

[7] = tested on: Pa3; experiment: microbe, parasite or virus in culture; details: multidrug resistant clinical isolate
Protocol: as §4, §2, §3

[8] = tested on: Sa2; experiment: microbe, parasite or virus in culture
Protocol: as §4, §2, §3

[9] = tested on: KpCR2; experiment: microbe, parasite or virus in culture; details: carbapenem-resistant clinical isolate
Protocol: as §4, §2, §3

[10] = tested on: Sa1; experiment: microbe, parasite or virus in culture
Protocol: as §4, §2, §3

[11] = tested on: KpCR3; experiment: microbe, parasite or virus in culture; details: carbapenem-resistant clinical isolate
Protocol: as §4, §2, §3

[12] = tested on: S. aureus ATCC 25923; experiment: microbe, parasite or virus in culture; details: ATCC 25923
Protocol: as §1, §2, §3

Structure (SMILES) | membrane leakage ability (in words) [1] | CAC (critical aggregation concentration) [2] | Antimicrobial activity (MIC) P. aeruginosa ATCC 27853 ([3]; ATCC 27853) | Antimicrobial activity (MIC) Pa1 [4] | Antimicrobial activity (MIC) Sa3 [5] | Antimicrobial activity (MIC) KpCR1 [6] | Antimicrobial activity (MIC) Pa3 [7] | Antimicrobial activity (MIC) Sa2 ([8]; 24 h) | Antimicrobial activity (MIC) KpCR2 [9] | Antimicrobial activity (MIC) Sa1 ([10]; 24 h) | Antimicrobial activity (MIC) KpCR3 [11] | Antimicrobial activity (MIC) S. aureus ATCC 25923 [12] | Antimicrobial activity (MIC) P. aeruginosa ATCC 27853 ([3]; 100% growth inhibition after 16–18 h at 37 °C) | Antimicrobial activity (MIC) Sa2 ([8]; MRSA clinical isolate) | Antimicrobial activity (MIC) Sa1 ([10]; MRSA clinical isolate)
CCCCC(=O)Nc1ccc(C[C@H](N)C(=O)N[C@H](C(=O)N2CCC[C@H]2C(=O)N[C@@H](Cc2c[nH]c3ccccc23)C(=O)N[C@@H](Cc2ccccc2)C(=O)N[C@@H](CO)C(=O)N[C@@H](CCCCN)C(=O)N[C@@H](Cc2ccccc2)C(=O)N[C@H](CC(C)C)C(=O)N[C@H](CCCCN)C(=O)N[C@@H](CCCNC(=N)N)C(=O)N[C@H](C(=O)N[C@@H](CC(C)C)C(N)=O)[C@@H](C)CC)C(C)C)cc1 [C, H-Phe(4-NHCO(CH2)3CH3)-Val-Pro-Trp-Phe-Ser-Lys-Phe-DLeu-DLys-Arg-Ile- Leu-NH2] (H-[Phe(4-NH2)](Pentanoyl)VPWFSKF[dL][dK]RIL-NH2) | intermediate ability to produce leakage | 39.5 µM | 25 µM | 25 µM | 12.5 µM | 12.5 µM | 25 µM | 12.5 µM | 12.5 µM | 12.5 µM | 12.5 µM | 6.25 µM |  |  | 
CC[C@H](C)[C@H](NC(=O)[C@H](CCCNC(=N)N)NC(=O)[C@@H](CCCCN)NC(=O)[C@@H](CC(C)C)NC(=O)[C@H](Cc1ccccc1)NC(=O)[C@H](CCCCN)NC(=O)[C@H](CO)NC(=O)[C@H](Cc1ccccc1)NC(=O)[C@H](Cc1c[nH]c2ccccc12)NC(=O)[C@@H]1CCCN1C(=O)[C@@H](NC(=O)[C@@H](N)Cc1ccccc1)C(C)C)C(=O)N[C@@H](CC(C)C)C(N)=O [Compound 1B, H-Phe-Val-Pro-Trp-Phe-Ser-Lys-Phe-DLeu-DLys-Arg-Ile-Leu-NH2] (H-FVPWFSKF[dL][dK]RIL-NH2) | lowest leakage ability | unable to aggregate under the range of concentrations investigated; also recorded: not aggregated at the concentration tested |  | 12.5 µM | 6.25 µM | 12.5 µM | 12.5 µM |  | 12.5 µM |  | 12.5 µM | 6.25 µM | 12.5 µM | 12.5 µM | 12.5 µM
